Test results as given in US20230047208A1, “RNA Splicing Modulation” (The General Hospital Corporation, priority 2020, published 2023).

Test system: wildtype (WT) human fibroblast cell lines
Test: Transcriptome-wide splicing by RNA sequencing (RNASeq), exon triplet PSI change;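 as to Effect: six WT fibroblast lines treated seven days versus DMSO vehicle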;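 as to T-PSI: T-PSI is average treated PSI after seven days of treatment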
Assay type: cell-based
Design: key to Effect: Exclusion; Inclusion; Unchanged
Text: FIG. 2A provides a representation of an exon triplet. Exon U is upstream of Exon X, which is upstream of Exon D. R1, R2 and R3 represent RNA sequencing (RNASeq) reads spanning the regions between two adjacent exons. UI1, I1X, XI2 and I2D are four regions flanking the four splice sites of the exon-triplet. Each flanking region consists of 25 exonic base pairs and 75 intronic base pairs.
FIG. 2B provides a volcano plot showing the ψ (PSI: Percent Spliced-In) changes in splicing after treatment with Compound (I). Each dot represents one of the 161,097 expressed exon triplets in human fibroblasts. The x axis represents the ψ changes after treatment and the y axis represents the False Discovery Rate (FDR) (log 10 transformed). […] The horizontal dashed line indicates an FDR of 0.1. The dots on the right side of the right vertical dashed line and above the horizontal dashed line represent the exon-triplets with an increase for Exon X inclusion (Δψ≥0.1 and FDR<0.1) while the dots on left side of the left vertical dashed line and above the horizontal dashed line represent an increase for Exon X exclusion (Δψ≤−0.1 and FDR<0.1). Black dots in-between the two vertical dashed lines represent exon-triplets unchanged from the treatment.
In some aspects, analysis is performed on data derived from the assay to measure the magnitude of splicing to determine the amount of exons spliced into an mRNA transcript that is produced in the presence of Compound (I) relative to the amount in the absence of Compound (I) or presence of a negative control. In a preferred aspect, the method utilized is calculation of change in Percent Spliced In (ΔPSI). […] The ΔPSI value is derived from the formula: […]
The values for “a” and “b” represent the number of reads supporting the probability for potential inclusion or exclusion of an exon in an RNA transcript. The “a” value is derived from the number of reads within an exon triplet covering, in 5′ to 3′ order: the last few bases (>1 nucleotide) of an upstream exon operably linked to the first few bases (>1 nucleotide) of a middle exon. The “b” value is derived from the number of reads within an exon triplet covering, in 5′ to 3′ order: the last few bases (>1 nucleotide) of the middle exon operably linked to the first few bases (>1 nucleotide) of a downstream exon. The number of reads will indicate whether the splice junction of a middle exon has been identified as potentially having a CNN Motif(s) by the CNN Model described herein, wherein the inclusion or exclusion of the middle exon may be modulated in the presence of Compound (I) to produce one or more mature RNA isoforms from the gene transcript. The value for “c” represents the number of reads supporting the exclusion of the middle exon.
The effect on splicing modulation and corresponding splice differences toward exon inclusion or exclusion was determined by counting the RNASeq reads covering two splice junctions of exon triplets (three consecutive exons: Exon U, Exon X, Exon D) and the corresponding intervening introns, then comparing the change in Percent Spliced In (ΔPSI or Δψ) of the middle exon (Exon X) after treatment (as shown in FIG. 2A)^52,53. 934 exon triplets were identified showing differential middle exon inclusion or exclusion in response to Compound (I) treatment. Of these, 254 were exon inclusion events (Δψ≥0.1 and FDR<0.1) and 680 were exon exclusion events (Δψ≤−0.1 and FDR<0.1) (as shown in FIG. 2B). […] The splicing results were evaluated by RT-PCR in independent replicate experiments, confirming all the calculated Δψ values. […]

[1] = NUTM2A-AS1 Exon 89067714-89067817
[2] = ORMDL1 Exon 190647740-190647849
[3] = OSBPL8 Exon 76853639-76853675, Intron1 76844760-76853638
[4] = OSBPL8 Exon 76853639-76853675, Intron1 76844769-76853638
[5] = OSER1-AS1 Exon 42846007-42846322
[6] = PACRGL Exon 20711306-20711396, Intron1 20706438-20711305
[7] = PACRGL Exon 20711306-20711396, Intron1 20709494-20711305
[8] = PCNXL2 Exon 233160892-233161145
[9] = PCNXL2 Exon 233353645-233353677
[10] = PDE4DIP Exon 144859759-144859998

## Clc1nc(NCc2ccncc2)c2cc[nH]c2n1 [Compound (I), 2-chloro-N-(pyridin-4-ylmethyl)-7H-pyrrolo[2,3-d]pyrimidin-4-amine]
NUTF2 Exon 67881181-67881359
  T-PSI: 0.104
  ΔPSI: −0.003
[1]
  Effect: Exc
  T-PSI: 0.100
  ΔPSI: −0.120
OARD1 Exon 41036580-41036692
  Effect: Exc
  T-PSI: 0.563
  ΔPSI: −0.267
OCRL Exon 128718321-128718344
  Effect: Inc
  T-PSI: 0.364
  ΔPSI: 0.260
ODF2 Exon 131231462-131231632
  Effect: Exc
  T-PSI: 0.872
  ΔPSI: −0.102
ODF2L Exon 86822127-86822285
  Effect: Exc
  T-PSI: 0.514
  ΔPSI: −0.272
OFD1 Exon 13781864-13781974
  Effect: Inc
  T-PSI: 0.981
  ΔPSI: 0.131
OPN3 Exon 241767722-241767881
  Effect: Unc
  T-PSI: 0.437
  ΔPSI: −0.004
OPTN Exon 13150138-13150289
  Effect: Inc
  T-PSI: 0.387
  ΔPSI: 0.176
OPTN Exon 13150962-13151015
  Effect: Exc
  T-PSI: 0.121
  ΔPSI: −0.220
[2]
  Effect: Exc
  T-PSI: 0.407
  ΔPSI: −0.295
OS9 Exon 58113882-58114046
  Effect: Exc
  T-PSI: 0.344
  ΔPSI: −0.181
[3]
  Effect: Inc
  T-PSI: 0.296
  ΔPSI: 0.200
[4]
  Effect: Inc
  T-PSI: 0.269
  ΔPSI: 0.191
[5]
  Effect: Unc
  T-PSI: 0.153
  ΔPSI: 0.000
P4HA2 Exon 131562390-131562914
  Effect: Unc
  T-PSI: 0.155
  ΔPSI: −0.007
P4HA2 Exon 131562625-131562914
  Effect: Unc
  T-PSI: 0.160
  ΔPSI: −0.007
PACRGL Exon 20709426-20709493
  Effect: Exc
  T-PSI: 0.666
  ΔPSI: −0.179
[6]
  Effect: Exc
  T-PSI: 0.462
  ΔPSI: −0.305
[7]
  Effect: Exc
  T-PSI: 0.563
  ΔPSI: −0.242
PACRGL Exon 20726431-20726511
  Effect: Exc
  T-PSI: 0.095
  ΔPSI: −0.120
PAM Exon 102309820-102310140
  Effect: Exc
  T-PSI: 0.478
  ΔPSI: −0.123
PARD3 Exon 34625127-34625171
  Effect: Unc
  T-PSI: 0.805
  ΔPSI: −0.003
PARD3 Exon 34739245-34739376
  Effect: Exc
  T-PSI: 0.584
  ΔPSI: −0.165
PARL Exon 183551512-183551613
  Effect: Exc
  T-PSI: 0.819
  ΔPSI: −0.118
PARP6 Exon 72543186-72543295
  Effect: Inc
  T-PSI: 0.902
  ΔPSI: 0.148
PARP6 Exon 72543186-72543298
  Effect: Inc
  T-PSI: 0.870
  ΔPSI: 0.164
PARP11 Exon 3938076-3938196
  Effect: Exc
  T-PSI: 0.250
  ΔPSI: −0.245
PATL1 Exon 59423429-59423518
  Effect: Exc
  T-PSI: 0.710
  ΔPSI: −0.168
PCBP2 Exon 53861589-53861627
  Effect: Exc
  T-PSI: 0.431
  ΔPSI: −0.218
PCID2 Exon 113845186-113845289
  Effect: Exc
  T-PSI: 0.757
  ΔPSI: −0.217
PCM1 Exon 17838100-17838264
  Effect: Exc
  T-PSI: 0.444
  ΔPSI: −0.135
[8]
  Effect: Unc
  T-PSI: 0.891
  ΔPSI: 0.009
[9]
  Effect: Exc
  T-PSI: 0.899
  ΔPSI: −0.101
PCNXL4 Exon 60574304-60575045
  Effect: Exc
  T-PSI: 0.498
  ΔPSI: −0.151
PCYT2 Exon 79863258-79863323
  Effect: Exc
  T-PSI: 0.804
  ΔPSI: −0.150
[10]
  Effect: Inc
  T-PSI: 0.821
  ΔPSI: 0.140
PDGFC Exon 157782581-157782641
  Effect: Unc
  T-PSI: 0.141
  ΔPSI: 0.006
PDLIM2 Exon 22449064-22449181
  Effect: Exc
  T-PSI: 0.542
  ΔPSI: −0.322
PDP1 Exon 94930139-94930173
  Effect: Unc
  T-PSI: 0.184
  ΔPSI: −0.002
PDPR Exon 70148773-70148833
  Effect: Unc
  T-PSI: 0.268
  ΔPSI: −0.005
PDXDC2P Exon 70010714-70011906
  Effect: Unc
  T-PSI: 0.246
  ΔPSI: −0.004
PDZD11 Exon 69509372-69509443
  Effect: Inc
  T-PSI: 0.417
  ΔPSI: 0.257
PEAK1 Exon 77576225-77576372
  Effect: Exc
  T-PSI: 0.201
  ΔPSI: −0.170
PEAK1 Exon 77657505-77657567
  Effect: Unc
  T-PSI: 0.806
  ΔPSI: −0.001
PEX1 Exon 92138643-92138725
  Effect: Exc
  T-PSI: 0.444
  ΔPSI: −0.341
PEX5 Exon 7354837-7354947
  Effect: Exc
  T-PSI: 0.279
  ΔPSI: −0.163
PEX11A Exon 90229662-90229777
  Effect: Exc
  T-PSI: 0.316
  ΔPSI: −0.403
PFDN1 Exon 139680001-139680167
  T-PSI: 0.458
  ΔPSI: −0.326
PFDN5 Exon 53690214-53690335
  T-PSI: 0.175
  ΔPSI: 0.008
PFDN5 Exon 53690238-53690335
  T-PSI: 0.180
  ΔPSI: 0.007
RNASeq, human fibroblasts, out of 161,097 expressed triplets
  exon triplets showing differential middle exon inclusion or exclusion in response to treatment: 934
Δψ≤0.01
  unchanged-response set, exon triplets: 382
Δψ≤−0.1 and FDR<0.1
  exon exclusion events: 680
Δψ≥0.1 and FDR<0.1
  exon inclusion events: 254
